Experimental data from patent US9617256B2 (priority 2007, dated 2017).
Values after ≈ are worked out from the molar mass of the structure shown.

Legend:
[1] = system: APAE006 (strain of P. aeruginosa in which all efflux pumps are inactivated); assay: microbe, parasite or virus in culture; format: cell-based; settings: for MIC: Pseudomonas aeruginosa, read-out: MIC APAE006, P. aeruginosa, all efflux pumps inactivated
In short: (§1)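 CLSI broth microdilution in cation-adjusted Mueller-Hinton broth, final inoculum 3×10^5–7×10^5 CFU/mL, 2-fold drug dilutions, 18-24 hours at 35° C. in ambient air. APAE006 is an efflux-pump-inactivated P. aeruginosa strain. Assay performance monitored with QC strains and levofloxacin.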

APAE001 (ATCC27853) = assay: MIC broth microdilution, APAE001; format: cell-based, P. aeruginosa; settings: for MIC: Pseudomonas aeruginosa, ATCC27853, read-out: MIC APAE001, APAE001 is ATCC27853
In short: (§2)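 Minimum inhibitory concentrations followed CLSI broth microdilution guidelines: cation-adjusted Mueller-Hinton broth, 2-fold serial drug dilutions, final inoculum 3×10^5–7×10^5 CFU/mL, ambient air at 35° C. for 18-24 hours. Quality-control strains and levofloxacin monitored performance.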

AECO001 (ATCC25922) = assay: MIC broth microdilution, AECO001; format: cell-based, E. coli; settings: for MIC: Escherichia coli, ATCC25922, read-out: MIC AECO001
In short: as §2

[2] = system: AECO063 (ATCC25922 bearing an acrAB mutation); assay: microbe, parasite or virus in culture; format: cell-based, E. coli; settings: for MIC: Escherichia coli, ATCC25922, read-out: MIC AECO063
In short: as §2

[3] = system: AABA1060 (clinical isolate of Acinetobacter baumannii); assay: MIC broth microdilution, AABA1060; format: cell-based; settings: for MIC: Acinetobacter baumannii, read-out: MIC AABA1060
In short: as §2

AECO001 HSA AGP = assay: MIC broth microdilution, AECO001 HSA AGP; format: cell-based, E. coli; settings: for MIC: Escherichia coli
In short: as §2

[4] = system: ASAU001 (laboratory strain of S. aureus, ATCC29213); assay: MIC broth microdilution, ASAU001; format: cell-based; settings: for MIC: Staphylococcus aureus, ATCC29213, read-out: MIC ASAU001
In short: as §2

[5] = system: APAE006 in the presence of 8 micrograms per milliliter of polymyxin B nonapeptide; format: cell-based, P. aeruginosa; settings: in the presence of 8 micrograms per milliliter of polymyxin B nonapeptide
In short: as §1

Q: `CO[C@H](C)[C@H](NC(=O)c1ccc(/C=C/C#Cc2ccc(CNC3CC3)cc2)cc1)C(=O)NO` [Example 113-7] was tested. Which MIC [1] did it give?
A: Its MIC is < 2 µg/mL.

Q: And the MIC (APAE001 (ATCC27853))?
A: The MIC was 2 to 16 µg/mL (≈ 4.47 to 35.8 µM).

Q: What about the MIC (AECO001 (ATCC25922)) of the same compound?
A: Its MIC is < 2 µg/mL.

Q: And the MIC [2]?
A: Its MIC is < 2 µg/mL.

Q: And the MIC [3]?
A: Its MIC is 2 to 16 µg/mL (≈ 4.47 to 35.8 µM).

Q: What about the MIC (AECO001 HSA AGP) of the same compound?
A: Its MIC is 2 to 16 µg/mL (≈ 4.47 to 35.8 µM).

Q: What about the MIC [4] of the same compound?
A: Its MIC is > 64 µg/mL.

Q: And the “MIC APAE006 + PMBN” value [5]?
A: Its value is “A (MIC's of 2.0 μg/mL or less = A)”.

Q: What does the source list for `C[C@@H](N)[C@H](NC(=O)c1ccc(/C=C/C#Cc2ccc(CN3CCS(=O)(=O)CC3)cc2)cc1)C(=O)NO` [Example 113-8]?
A: MIC APAE006 ([1]; P. aeruginosa, all efflux pumps inactivated): A (MIC's of 2.0 μg/mL or less = A); MIC APAE001 (APAE001 (ATCC27853); APAE001 is ATCC27853): B (MIC's of greater than 2.0 μg/mL to 16.0 μg/mL = B); MIC AECO001 (AECO001 (ATCC25922); AECO001 is ATCC25922): A (MIC's of 2.0 μg/mL or less = A); MIC AECO063 ([2]; ATCC25922 bearing an acrAB mutation): A (MIC's of 2.0 μg/mL or less = A); MIC AABA1060 ([3]; clinical isolate of Acinetobacter baumannii): A (MIC's of 2.0 μg/mL or less = A); MIC AECO001 HSA AGP (AECO001 HSA AGP): B (MIC's of greater than 2.0 μg/mL to 16.0 μg/mL = B); MIC ASAU001 ([4]; S. aureus ATCC29213): C (MIC's of greater than 16.0 μg/mL to 64.0 μg/mL = C); MIC APAE006 + PMBN [5]: A (MIC's of 2.0 μg/mL or less = A)

Q: `COCc1ccc(C#C/C=C/c2ccc(C(=O)N[C@H](C(=O)NO)[C@@H](C)N)cc2)cc1` [Example 113-9] was tested. Which MIC [1] did it give?
A: The MIC was < 2 µg/mL.

Q: What about the MIC (APAE001 (ATCC27853)) of the same compound?
A: The MIC was < 2 µg/mL.

Q: What about the MIC (AECO001 (ATCC25922)) of the same compound?
A: Its MIC is < 2 µg/mL.

Q: And the MIC [2]?
A: The MIC was < 2 µg/mL.

Q: What about the MIC [3] of the same compound?
A: Its MIC is < 2 µg/mL.

Q: What about the MIC (AECO001 HSA AGP) of the same compound?
A: Its MIC is 2 to 16 µg/mL (≈ 4.91 to 39.3 µM).

Q: What about the MIC [4] of the same compound?
A: The MIC was 16 to 64 µg/mL (≈ 39.3 to 157 µM).

Q: What about the “MIC APAE006 + PMBN” value [5] of the same compound?
A: The value was “A (MIC's of 2.0 μg/mL or less = A)”.

Q: What does the source list for `CCOCc1ccc(C#C/C=C/c2ccc(C(=O)N[C@H](C(=O)NO)[C@@H](C)N)cc2)cc1` [Example 113-10]?
A: MIC [1]: < 2 µg/mL; MIC (APAE001 (ATCC27853)): 2 to 16 µg/mL (≈ 4.74 to 38 µM); MIC (AECO001 (ATCC25922)): < 2 µg/mL; MIC [2]: < 2 µg/mL; MIC [3]: 2 to 16 µg/mL (≈ 4.74 to 38 µM); MIC (AECO001 HSA AGP): 2 to 16 µg/mL (≈ 4.74 to 38 µM); MIC [4]: 16 to 64 µg/mL (≈ 38 to 152 µM); MIC APAE006 + PMBN [5]: A (MIC's of 2.0 μg/mL or less = A)

Q: What does the source list for `O=C(CNC1CC1)NC[C@H](NC(=O)c1ccc(/C=C/C#Cc2ccc(CO)cc2)cc1)C(=O)NO` [Example 113-11]?
A: MIC [1]: < 2 µg/mL; MIC (APAE001 (ATCC27853)): 2 to 16 µg/mL (≈ 4.2 to 33.6 µM); MIC (AECO001 (ATCC25922)): < 2 µg/mL; MIC [2]: < 2 µg/mL; MIC [3]: 16 to 64 µg/mL (≈ 33.6 to 134 µM); MIC (AECO001 HSA AGP): 16 to 64 µg/mL (≈ 33.6 to 134 µM); MIC [4]: > 64 µg/mL; MIC APAE006 + PMBN [5]: A (MIC's of 2.0 μg/mL or less = A)

Q: For `C[C@@H](N)[C@H](NC(=O)c1ccc(/C=C/C#Cc2ccccc2)cc1)C(=O)NO` [Example 114-1, N-((1S,2R)-2-Amino-1-hydroxycarbamoyl-propyl)-4-((E)-4-phenyl-but-1-en-3-ynyl)-benzamide], which MIC [1] is on record?
A: The MIC was < 2 µg/mL.

Q: And the MIC (APAE001 (ATCC27853))?
A: Its MIC is < 2 µg/mL.

Q: And the MIC (AECO001 (ATCC25922))?
A: Its MIC is < 2 µg/mL.

Q: What about the MIC [2] of the same compound?
A: The MIC was < 2 µg/mL.

Q: And the MIC [3]?
A: Its MIC is < 2 µg/mL.

Q: What about the MIC (AECO001 HSA AGP) of the same compound?
A: The MIC was 2 to 16 µg/mL (≈ 5.5 to 44 µM).

Q: And the MIC [4]?
A: Its MIC is 2 to 16 µg/mL (≈ 5.5 to 44 µM).

Q: What about the “MIC APAE006 + PMBN” value [5] of the same compound?
A: The value was “A (MIC's of 2.0 μg/mL or less = A)”.

Q: Which MIC [1] does the source give for `C[C@@H](N)[C@H](NC(=O)c1ccc(/C=C/C#Cc2ccc(F)cc2)cc1)C(=O)NO` [Example 114-2] here?
A: The MIC was < 2 µg/mL.

Q: And the MIC (APAE001 (ATCC27853))?
A: The MIC was 2 to 16 µg/mL (≈ 5.24 to 41.9 µM).

Q: What about the MIC (AECO001 (ATCC25922)) of the same compound?
A: The MIC was < 2 µg/mL.

Q: And the MIC [2]?
A: The MIC was < 2 µg/mL.

Q: What about the MIC [3] of the same compound?
A: The MIC was 2 to 16 µg/mL (≈ 5.24 to 41.9 µM).

Q: And the MIC (AECO001 HSA AGP)?
A: Its MIC is 2 to 16 µg/mL (≈ 5.24 to 41.9 µM).

Q: And the MIC [4]?
A: The MIC was 16 to 64 µg/mL (≈ 41.9 to 168 µM).

Q: And the “MIC APAE006 + PMBN” value [5]?
A: Its value is “A (MIC's of 2.0 μg/mL or less = A)”.

Q: For `C[C@@H](N)[C@H](NC(=O)c1ccc(/C=C/C#Cc2ccccc2F)cc1)C(=O)NO` [Example 114-3], which MIC [1] is on record?
A: The MIC was < 2 µg/mL.

Q: And the MIC (APAE001 (ATCC27853))?
A: Its MIC is < 2 µg/mL.

Q: And the MIC (AECO001 (ATCC25922))?
A: The MIC was < 2 µg/mL.

Q: What about the MIC [2] of the same compound?
A: The MIC was < 2 µg/mL.

Q: And the MIC [3]?
A: The MIC was < 2 µg/mL.

Q: And the MIC (AECO001 HSA AGP)?
A: Its MIC is 2 to 16 µg/mL (≈ 5.24 to 41.9 µM).

Q: And the MIC [4]?
A: Its MIC is 16 to 64 µg/mL (≈ 41.9 to 168 µM).

Q: And the “MIC APAE006 + PMBN” value [5]?
A: The value was “A (MIC's of 2.0 μg/mL or less = A)”.

Q: Which results are given for `C[C@@H](N)[C@H](NC(=O)c1ccc(/C=C/C#Cc2cccc(Cl)c2)cc1)C(=O)NO` [Example 114-4]?
A: MIC [1]: < 2 µg/mL; MIC (APAE001 (ATCC27853)): 2 to 16 µg/mL (≈ 5.03 to 40.2 µM); MIC (AECO001 (ATCC25922)): < 2 µg/mL; MIC [2]: < 2 µg/mL; MIC [3]: 2 to 16 µg/mL (≈ 5.03 to 40.2 µM); MIC (AECO001 HSA AGP): 2 to 16 µg/mL (≈ 5.03 to 40.2 µM); MIC [4]: 2 to 16 µg/mL (≈ 5.03 to 40.2 µM); MIC APAE006 + PMBN [5]: A (MIC's of 2.0 μg/mL or less = A)

Q: For `C[C@@H](N)[C@H](NC(=O)c1ccc(/C=C/C#Cc2ccccc2Cl)cc1)C(=O)NO` [Example 114-5], which MIC [1] is on record?
A: The MIC was < 2 µg/mL.

Q: And the MIC (APAE001 (ATCC27853))?
A: The MIC was 2 to 16 µg/mL (≈ 5.03 to 40.2 µM).

Q: What about the MIC (AECO001 (ATCC25922)) of the same compound?
A: Its MIC is < 2 µg/mL.

Q: What about the MIC [2] of the same compound?
A: The MIC was < 2 µg/mL.

Q: And the MIC [3]?
A: The MIC was < 2 µg/mL.

Q: What about the MIC (AECO001 HSA AGP) of the same compound?
A: Its MIC is 2 to 16 µg/mL (≈ 5.03 to 40.2 µM).

Q: What about the MIC [4] of the same compound?
A: The MIC was 2 to 16 µg/mL (≈ 5.03 to 40.2 µM).

Q: What about the “MIC APAE006 + PMBN” value [5] of the same compound?
A: Its value is “A (MIC's of 2.0 μg/mL or less = A)”.

Q: With `C[C@@H](N)[C@H](NC(=O)c1ccc(/C=C/C#Cc2ccc(C(F)(F)F)cc2)cc1)C(=O)NO` [Example 114-6] as the compound, how does the MIC [1] read?
A: Its MIC is 2 to 16 µg/mL (≈ 4.64 to 37.1 µM).

Q: And the MIC (APAE001 (ATCC27853))?
A: The MIC was 2 to 16 µg/mL (≈ 4.64 to 37.1 µM).

Q: What about the MIC (AECO001 (ATCC25922)) of the same compound?
A: Its MIC is < 2 µg/mL.

Q: What about the MIC [2] of the same compound?
A: The MIC was < 2 µg/mL.

Q: And the MIC [3]?
A: The MIC was 2 to 16 µg/mL (≈ 4.64 to 37.1 µM).

Q: And the MIC (AECO001 HSA AGP)?
A: The MIC was 2 to 16 µg/mL (≈ 4.64 to 37.1 µM).

Q: And the MIC [4]?
A: The MIC was 2 to 16 µg/mL (≈ 4.64 to 37.1 µM).

Q: And the “MIC APAE006 + PMBN” value [5]?
A: The value was “A (MIC's of 2.0 μg/mL or less = A)”.
